The values that follow come from patent US20240392241A1, “METHOD FOR PRODUCING CELL MASS INCLUDING PITUITARY TISSUE AND CELL MASS” (SUMITOMO CHEMICAL COMPANY, LIMITED, priority 2021, published 2024).

Common to all, as to assay type: cell-based
In series [1] the test system is human iPS cells (1231A3 strain). Briefly: Timing of JNK inhibitor addition in pituitary organoid differentiation, bright field observation (Example 2). As to conditions: observed day 28. The method, then: In Example 2, according to step shown in FIG. 2A, a cell population including cells that constitute pituitary tissue was produced. Specifically, human iPS cells (1231A3 strain, obtained from RIKEN) were cultured under feeder-free conditions according to the method described in Scientific Reports, 4, 3594 (2014). As the feeder-free medium, StemFit medium was used and, as the feeder-free scaffold, Laminin 511-E8 was used.
Differentiation induction was performed under the same conditions as in Example 1 except for the condition of adding a JNK inhibitor, compared to the conditions of Example 1. As the condition for adding JNK inhibitor, conditions including addition of JNK—IN-8 (manufactured by Merck, 1 μM), which is a c-Jun N-terminal kinase (JNK) inhibitor, on days 0, 2, 6, 10, and 13 after the start of differentiation induction were compared with conditions without addition of JNK inhibitor. When the JNK inhibitor is added on days 2, 6, 10, and 13 after the start of differentiation induction, 2 μM was added to the medium when adding or replacing the medium, so that the final concentration in the well would be 1 μM.
On day 28 after the start of suspension culture, bright field observation by polarized illumination was performed using an inverted microscope (manufactured by KEYENCE CORPORATION, BIOREVO BZ-X800) (FIG. 2B).

Series [2] relates to cell mass derived from human iPS cell line 201B7. The series is described as follows: ACTH concentration in culture medium of cell masses by ELISA (Example 4). As to conditions: for ACTH concentration in the medium compared with JNK inhibitor non-addition conditions: 1 μM from day 0; for ACTH concentration in the medium vs non-addition condition: 3 μM. As for the experimental part:
In Example 4, according to step shown in FIG. 4A, a cell population including cells that constitute pituitary tissue was produced. Specifically, the culture supernatant of a cell mass derived from human iPS cell line 201B7 prepared by the method described in Example 3 was collected over time, and the amount of ACTH secreted per cell mass was measured. As a specific measurement method, cell masses containing pituitary tissue were prepared under four conditions: from day 0 to day 30 of differentiation induction, conditions in which the JNK inhibitor JNK—IN-8 was added at 1 μM, 3 μM, or 10 μM, and no addition control. […] Thereafter, the cell masses prepared by adding 1 μM or 3 μM of JNK—IN-8 and the non-addition control were suspension cultured in a 10 cm dish with 20 ml of medium, and half of the medium was replaced every 3 to 4 days. The culture supernatant was collected before replacement of a half-volume of the medium on days 61, 103, 152, and 201 of differentiation induction, and frozen at −150° C. When all samples were collected, the ACTH concentration in the recovered medium was measured by the ELISA method used in clinical testing (testing outsourced to SRL, Ltd.). Based on the obtained ACTH concentration data (pg/mL), the total number of cell masses at the time of sampling and the total amount of culture medium were corrected to the ACTH concentration under the conditions where 20 cell masses were cultured in 20 ml of medium, and shown in a graph. A similar experiment was performed twice.
As a result, the ACTH concentration in the medium was about 5 times as high on day 61 of differentiation induction, about 2 times as high on days 103 and 152 of differentiation induction, and about 1.3 times as high on day 201 of differentiation induction under the conditions in which 1 μM JNK—IN-8 was added from day 0 of differentiation induction, compared with the JNK inhibitor non-addition conditions. Under the conditions in which 3 μM JNK—IN-8 was added, the ACTH concentration in the medium was higher on days 61 and 103 of differentiation induction than that in the non-addition condition, but lower on days 152 and 201 of differentiation induction than that in the non-addition condition. From the above results, it was shown that the addition of a JNK inhibitor improves the ACTH secretory capacity per cell mass in differentiation induction of pituitary tissue from pluripotent stem cells, and that the concentration of the JNK inhibitor to be added is preferably not more than 3 μM (FIG. 4B).

Series [3] has as its system human iPS cells (201B7 strain). Briefly: Immunostaining of ACTH and E-cadherin in cell aggregates on day 103 (Example 7). The method, then: According to the steps shown in FIG. 10A, suspension culturing was performed using human iPS cells (201B7 strain) in the same manner as in Example 4, and continued until day 103. Using the obtained cell aggregates, cryosections were prepared in the same manner as in Example 3. The obtained sections were subjected to immunostaining using anti-ACTH antibody (manufactured by Fitzgerald Industries) and anti-E-cadherin antibody (manufactured by Takara Bio Inc.), and the nucleus was stained with DAPI. […] The scale bar at the bottom right of FIG. 10B indicates 200 μm.

As for `Cc1cc(NC(=O)c2cccc(NC(=O)/C=C/CN(C)C)c2)ccc1Nc1nccc(-c2cccnc2)n1` [JNK—IN-8, (E)-3-(4-(dimethylamino)but-2-enamido)-N-(3-methyl-4-((4-(pyridin-3-yl)pyrimidin-2-yl)amino)phenyl)benzamide], the “formation of nonneural epithelium/pituitary vs no addition” value in series [1] (JNK—IN-8 1 μM added on days 0, 2, and 6 after start of differentiation induction) was “formed more efficiently”; in series [1] (JNK—IN-8 1 μM added on days 10 and 13 after start of differentiation), “no difference”. The “ACTH concentration in the medium compared with JNK inhibitor non-addition conditions” value is recorded as “about 5 times” in series [2] (day 61 of differentiation induction); “about 1.3 times” in series [2] (day 201 of differentiation induction); “about 2 times” in series [2] (days 103 and 152 of differentiation induction). Besides, the “ACTH concentration in the medium vs non-addition condition” value in series [2] (days 61 and 103 of differentiation induction) is given as “higher”; in series [2] (days 152 and 201 of differentiation induction), “lower”. The “state of cell mass” value in series [2] (10 μM added from day 0 to day 30 of differentiation induction) is listed as “collapse of cell mass”. Further, the “proportion of ACTH-positive cells in the entire cell aggregate” value in series [3] (JNKi(+), mean±SEM, n=8-12) was 42.2±4.4 % of total cells. In addition, the “proportion of E-cadherin-positive cells in the layer covering the surface of cell aggregates vs non-addition control” value in series [3] (JNK—IN-8 added) is reported as “higher”.
